Laboratory results taken from patent publication US20110312897A1, “CATHEPSIN L PROTEOLYTICALLY PROCESSES HISTONE H3 DURING MOUSE EMBRYONIC STEM CELL DIFFERENTIATION” (THE ROCKEFELLER UNIVERSITY, priority 2008, published 2011).
Blank lines part the entries; values can stand above or below the compound they belong to. Where a SMILES comes first, the peptide text is derived from it. Where no end group is shown, it is not given here. The star is where a group is joined. Cbz = O=C(OCc1ccccc1)*; CH2F = FC*

Columns and labels:
rCathepsin L = target: T1, rCathepsin L (Mus musculus, UniProt P06797); assay: ELISA based H3cs.1 cleavage assay of H3 15-31 peptides; format: biochemical; conditions: pH 7.5 and pH 5.5; compared to unmodified H3 15-31 peptide
T1 construct: purchased R&D Systems 1515-CY-010
T1 sequence (P06797 114-334): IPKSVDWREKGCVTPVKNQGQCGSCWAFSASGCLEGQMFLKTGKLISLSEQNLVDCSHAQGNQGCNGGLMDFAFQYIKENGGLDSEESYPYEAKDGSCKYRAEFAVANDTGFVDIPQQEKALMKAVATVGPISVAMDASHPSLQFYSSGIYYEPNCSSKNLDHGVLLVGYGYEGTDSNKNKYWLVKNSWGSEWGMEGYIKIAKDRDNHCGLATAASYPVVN
Procedure: FIG. 7A is an immunoblot showing cleavage of the modified recombinant histone 3 substrates following incubation with rCathepsin L. The four rH3 substrates used in the cleavage assay include: 1=rH3 unmodified, 2=rH3 alkylated to K27me2, 3=rH3 pan-acetylated with acetic anhydride, 4=rH3+K27me2 pan-acetylated with acetic anhydride. FIG. 7B is a graph showing the amount of recombinant H3 cleavage product formed following incubation with Cathepsin L. H3 cleavage reactions were performed as in FIG. 7A using synthesized H3 peptides representing amino acids 15 to 31. Reactions were incubated with ˜250 pmol peptide and quenched with 0.1% TFA before being plated in duplicate for ELISA with the H3cs.1 antibody. Signal was normalized to that of mock reactions for each peptide. Results represent three independent experiments. […] Binding decreases 3-fold with cleaved peptide. p<0.01. Kds are in μM±SEM. Data points represent the mean±SD
In order to test the effect of these modifications more quantitatively and specifically, a set of five peptides with identical backbone sequences flanking the H3 cleavage site (H3 15-31) were synthesized and then modified as follows: unmodified, K18 acetyl, K23 acetyl, K18ac+K23ac, and K27me2. An ELISA based assay using the H3cs.1 antibody described previously (characterized in FIG. 11) was used to quantitatively measure the H3cs.1 cleavage activity of rCathepsin L on these peptides.

differentiating ESCs = assay: Pluripotency and lineage marker expression in differentiating ESCs (immunoblot, Q-PCR); format: cell-based, mouse; conditions: for Nanog expression: inhibitor vs control cells
From the text: FIGS. 15A-15C show the effect of in vivo chemical inhibition of Cathepsin L on the transcriptional profile of differentiating ESCs. Cells were differentiated with RA in the presence of either Cathepsin L I inhibitor or DMSO alone, as in FIG. 6B. mRNA was isolated from those cells at the time points indicated, reverse transcribed into cDNA, and assayed for the expression of specific genes by Q-PCR with SYBR green. The data shown in FIGS. 15A-15C represent the average of two independent experiments.
(§1) ES cells (LF2 line) were cultured as previously described (Bernstein et al., “Mouse Polycomb Proteins Bind Differentially to Methylated Histone H3 and RNA and are Enriched in Facultative Heterochromatin,” Mol Cell Biol 26:2560-2569 (2006), which is hereby incorporated by reference in its entirety). Cells were grown on gelatin-coated plates without feeder cells and maintained in an undifferentiated state through culture in KODMEM (Invitrogen 1082-9018)), 2 mM L-glutamine (Sigma G7513), 15% ES grade fetal bovine serum (Gibco 10439-024), 10^−4 mM 2-mercaptoethanol, and leukemia inhibitory factor (LIF). To differentiate, cells were plated sparsely at ˜1*10^4 cells/cm^2, allowed to adhere overnight and then fed with differentiation media containing DMEM, 10% FBS, 10^−4 mM 2-mercaptoethanol and, for retinoic acid (RA) differentiation, 100 nM all-trans-RA (Sigma R2625). Embryoid body formation was accomplished by splitting partially trypsinized cells onto non-treated petri dishes and allowing cells to cluster. Chemical inhibition of Cathepsin L was accomplished by adding 10 uM [final] Cathepsin L I inhibitor (Calbiochem, Cat. No. 219402) to the cell media.
RNA was isolated from undifferentiated and +RA differentiating ESCs using Trizol reagent as directed by the manufacturer (Invitrogen Cat. No. 15596-018). RNA was transcribed into cDNA using the First Strand Superscript kit (Invitrogen Cat. No. 18080-051) and analyzed by quantitative PCR using SYBRgreen reagent (Applied Biosystems Cat. No. 4309155).
Importantly, neither Oct-3/4 nor Cathepsin B levels (FIG. 6C, panels d and e) appeared to change upon addition of the inhibitor.

Cathepsin L = target: T2, Cathepsin L (Mus musculus, UniProt P06797); assay: Chemical inhibition of Cathepsin L in RA-differentiating ESCs (immunoblot); format: cell-based; conditions: 10 uM in cell media, RA differentiation
T2 construct: endogenous in cells; host or cells: mouse ES cells (LF2 line), RA-differentiated
T2 sequence (P06797 114-334): as above
Procedure: as §1
Whole cell extracts were prepared by resuspending fresh or flash frozen cell pellets in SDS-Laemmli sample buffer and boiling immediately. […]
(§2) To further assess whether Cathepsin L causes histone H3 cleavage in vivo, a commercially available, cell-permeable Cathepsin L specific inhibitor, Cathepsin L Inhibitor I, was used Inhibition of Cathepsin L using a chemical inhibitor allowed the effect of Cathepsin L inhibition to be assessed within a single, wild-type cell line rather than comparing individual cell lines created by drug selection. […]

Cathepsin B = target: T3, Cathepsin B (Mus musculus, UniProt P10605); assay: Chemical inhibition in RA-differentiating ESCs, Cathepsin B immunoblot; format: cell-based; conditions: 10 uM in cell media, RA differentiation, vs control cells
T3 construct: endogenous in cells; host or cells: mouse ES cells (LF2 line), RA-differentiated
T3 sequence (P10605 80-333): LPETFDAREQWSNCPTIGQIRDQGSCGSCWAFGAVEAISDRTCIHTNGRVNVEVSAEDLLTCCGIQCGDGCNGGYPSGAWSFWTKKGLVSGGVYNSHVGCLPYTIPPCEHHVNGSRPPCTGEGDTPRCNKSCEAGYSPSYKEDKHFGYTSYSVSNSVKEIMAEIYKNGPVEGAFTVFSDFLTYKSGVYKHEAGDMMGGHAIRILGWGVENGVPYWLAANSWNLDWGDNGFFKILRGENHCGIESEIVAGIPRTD
Procedure: ES cells (LF2 line) were cultured as previously described (Bernstein et al., “Mouse Polycomb Proteins Bind Differentially to Methylated Histone H3 and RNA and are Enriched in Facultative Heterochromatin,” Mol Cell Biol 26:2560-2569 (2006), which is hereby incorporated by reference in its entirety). Cells were grown on gelatin-coated plates without feeder cells and maintained in an undifferentiated state through culture in KODMEM (Invitrogen 1082-9018)), 2 mM L-glutamine (Sigma G7513), 15% ES grade fetal bovine serum (Gibco 10439-024), 10^−4 mM 2-mercaptoethanol, and leukemia inhibitory factor (LIF). To differentiate, cells were plated sparsely at ˜1*10^4 cells/cm^2, allowed to adhere overnight and then fed with differentiation media containing DMEM, 10% FBS, 10^−4 mM 2-mercaptoethanol and, for retinoic acid (RA) differentiation, 100 nM all-trans-RA (Sigma R2625). […]
as §2

H3 cleavage activity = H3 cleavage activity (Mus musculus, UniProt P06797); assay: H3 cleavage activity with addition of chelators; format: biochemical; conditions: moderately high concentrations
Chain of H3 cleavage activity (P06797 114-334): as the sequence (P06797 114-334) above
Procedure: Extracts were incubated in buffer (10 mM HEPES, 10 mM KCl, 1.5 mM MgCl2, 0.34M sucrose, 10% glycerol, 5 mM β-mercaptoethanol, all final) with 0.1 μg/μl rH3-HIS (purified from E. coli) and incubated at 37° C. for 1-3 hours. […] For MS analysis, reactions were quenched by addition of 0.1% (final) TFA. rCathepsin L (R&D Systems, # 1515-CY-010), rCathepsin B (R&D Systems Cat No. BAF965), and rCathepsin K (Calbiochem Cat. No. 342001) were purchased from commercial sources and tested in the assay with rH[…].

[1] = target: T4, H3 protease activity in fraction #23 (Mus musculus, UniProt P06797); assay: In vitro H3 cleavage assay of hydroxyapatite fraction #23 +/- protease inhibitors; format: biochemical
T4 construct: a double chain mature form at ˜25 kD and ˜5 kD; endogenous in cells; host or cells: chromatin of 3 days +RA differentiating mouse ESCs (LF2), hydroxyapatite fraction #23
T4 sequence (P06797 114-288 limits assumed): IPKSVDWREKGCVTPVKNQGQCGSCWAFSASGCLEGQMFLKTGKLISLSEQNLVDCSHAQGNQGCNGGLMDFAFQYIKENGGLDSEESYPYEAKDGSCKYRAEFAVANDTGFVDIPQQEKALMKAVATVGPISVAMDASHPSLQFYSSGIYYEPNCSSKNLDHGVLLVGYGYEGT
T4 sequence (P06797 291-334 limits assumed): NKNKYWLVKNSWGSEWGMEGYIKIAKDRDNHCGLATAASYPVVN
Procedure: Extracts were incubated in buffer (10 mM HEPES, 10 mM KCl, 1.5 mM MgCl2, 0.34M sucrose, 10% glycerol, 5 mM β-mercaptoethanol, all final) with 0.1 μg/μl rH3-HIS (purified from E. coli) and incubated at 37° C. for 1-3 hours. Reactions were stopped by addition of 5×SDS sample buffer and boiling; results were analyzed by immunoblotting with HIS-HRP and/or H3.cs1 antibody. For MS analysis, reactions were quenched by addition of 0.1% (final) TFA. rCathepsin L (R&D Systems, # 1515-CY-010), rCathepsin B (R&D Systems Cat No. BAF965), and rCathepsin K (Calbiochem Cat. No. 342001) were purchased from commercial sources and tested in the assay with rH3-HIS.
Three days+RA differentiating ESC chromatin pellets were solubilized by sonication in buffer A (80 mM NaPO^−4, 200 mM NaCl), injected onto a 2 or 5 mL hydroxyapatite column (BioRad), and fractionated with a 200 mM to 2M NaCl gradient. Each fraction was then assayed as described above. […] Digest was then acidified with glacial acetic acid and aliquots of samples were analyzed using an LTQ-FT as described above. Data was searched against a mouse database using SEQUEST (Eng et al., Journal of the American Society of Mass Spectrometry 5:976-989 (1994), which is hereby incorporated by reference in its entirety). All spectra of interest were manually validated.
To validate further the identification of Cathepsin L as a histone H3 protease, the enriched fractions were tested with different classes of protease inhibitors in the H3 cleavage assay.

[2] = Q-PCR, after 3 days of differentiation, vs control cells

H3cs.1 cleavage activity of rCathepsin L on peptide (rCathepsin L): very little cleavage activity
Compound: K23ac: synthesized H3 15-31 peptide acetylated at K23 (APRKQLATK(Ac)AARKSAPA; UniProt P68433 16-32, looked up, fragment)

H3cs.1 cleavage activity of rCathepsin L on peptide (rCathepsin L): strongly increases
Compound: K27me2: synthesized H3 15-31 peptide modified with K27me2 (APRKQLATKAARKSAPA; K27 dimethylation; UniProt P68433 16-32, looked up, fragment)

all cleavage detected by the H3-general antibody (Cathepsin L): abolished | histone H3 cleavage (H3-general and H3.cs1 antibodies) (Cathepsin L; vs DMSO): decreased significantly | Cathepsin B levels (Cathepsin B): consistency of Cathepsin B levels
Compound: O=C(NC(Cc1ccccc1)C(=O)NC(Cc1ccccc1)C(=O)CF)OCc1ccccc1 (stereo not drawn) [Cathepsin L Inhibitor I] (Cbz-Phe-Phe-CH2F; configuration not given here)
Nestin expression (differentiating ESCs; [2]): trend toward maintaining higher expression | Pax3 expression (differentiating ESCs; [2]): trend toward maintaining higher expression | Nanog expression (differentiating ESCs; Q-PCR): remains unaffected | Nanog expression (differentiating ESCs; Q-PCR, listed as Cathepsin L I inhibitor): does not differ significantly | Gata6 expression (differentiating ESCs; Q-PCR, vs control): decreased expression | Sox17 expression (differentiating ESCs; Q-PCR, vs control): decreased expression | HoxA1 expression (differentiating ESCs; Q-PCR, vs control cells): did not show any significant trend | Musashi expression (differentiating ESCs; Q-PCR, vs control cells): did not show any significant trend | Oct-3/4 loss pattern (pluripotency marker) (differentiating ESCs; immunoblot, RA differentiation): unchanged | processing of Cathepsin L from intermediate form into mature form (Cathepsin L; vs DMSO): significant failure to fully process Cathepsin L

H3 cleavage activity (H3 cleavage activity): Significant inhibition
Compound: O=C(O)CN(CCOCCOCCN(CC(=O)O)CC(=O)O)CC(=O)O [EGTA]

H3 cleavage activity (H3 cleavage activity): Significant inhibition
Compound: O=C(O)CN(CCN(CC(=O)O)CC(=O)O)CC(=O)O [EDTA, Ethylenediaminetetraacetic acid]

Continued, compound first:

Compound: NCCc1ccc(S(=O)(=O)F)cc1 [AEBSF]
H3 cleavage activity ([1]; AEBSF 2 mM and 10 mM): not at the lower concentrations tested | H3 cleavage activity ([1]; AEBSF 20 mM): modest reduction in cleavage activity

Compound: K18 acetyl: synthesized H3 15-31 peptide acetylated at K18 (APRKQLATKAARKSAPA; K18 acetylation; UniProt P68433 16-32, looked up, fragment)
H3cs.1 cleavage activity of rCathepsin L on peptide (rCathepsin L): increases

Compound: K18ac+K23ac: synthesized H3 15-31 peptide acetylated at K18 and K23 (APRK(Ac)QLATK(Ac)AARKSAPA; UniProt P68433 16-32, looked up, fragment)
H3cs.1 cleavage activity of rCathepsin L on peptide (rCathepsin L): very little cleavage activity
